Reference: patent US6632826B1, “Carbocyclic HIV protease inhibitors” (priority 2001, dated 2003)
Like-named read-outs stand apart in the source and are kept apart here.

Key:
[1] = tested on: HIV-HXB2 in MT4 cells; assay: Antiviral assay: protection of HIV-infected MT4 cells from cell death (MTT); type: cell-based; details: MT4 cells infected with HIV-HXB2, 5 days, concentration preserving cell viability by 50%
Method: Methods 20: 309-321]. The method is based on the ability of compounds to protect HIV-infected T lymphoblastoid cells (MT4 cells) from cell-death mediated by the infection. The endpoint of the assay was calculated as the concentration of compound at which the cell viability of the culture was preserved by 50% (‘50% inhibitory concentration’, IC50). The cell viability of a culture was determined by the uptake of soluble, yellow 3-[4,5-dimethylthiazol-2-yl]-2,5-diphenyltetrazolium bromide (MTT) and its reduction to a purple insoluble formazan salt. After solubilization, spectrophotometric methods were employed to measure the amount of formazan product. MT4 cells were prepared to be in logarithmic-phase growth and a total of 2×10^6 cells infected with either the wild type or site directed mutant clones of HIV-HXB2 at a multiplicity of approximately 0.0001 infectious units of virus per cell in a total volume of between 200-500 μl. The cells were incubated with virus for one hour at 37° C. then washed in 0.01 M phosphate buffered saline, pH 7.2, and resuspensed in culture medium for incubation in culture with serial dilutions of test compound. The culture medium used was RPMI 1640 without phenol red, supplemented with penicillin, streptomycin, L-glutamine and 10% fetal calf serum (GM 10).
Test compounds were prepared as 2 mM solutions in dimethyl sulphoxide (DMSO). Four replicate, serial 2-fold dilutions in GM10 were then prepared and 50 microlitre amounts placed in 96-well plates over a final concentration range of 625-1.22 nm. Fifty microlitres GM10 and 3.75×10^4 infected cells were then added to each well. Control cultures containing no cells (blank), uninfected cells (100% viability; 4 replicates) and infected cells without compound (total virus-mediated cell death; 4 replicates) were also prepared. The cultures were then incubated at 37° C. in a humidified atmosphere of 5% CO2 in air for 5 days.
A fresh solution of 5 mg/mL MTT was prepared in 0.01 M phosphate buffered saline, pH 7.2 and 20 μL added to each culture. The cultures were further incubated as before for 2 hours. They were then mixed by pipetting up and down, and 170 microlitres of Triton X-100 in acidified isopropanol (10% v/v Triton X-100 in 1:250 mixture of concentrated HCl in isopropanol) were added and the cultures were mixed again by pipetting up and down. When the formazan deposit was fully solubilised by further mixing, the absorbance (OD) of the cultures was measured at 540 nm and 690 nm wavelength (690 nm readings were used as blanks for artefacts between wells). The percent protection for each treated culture was then calculated from the equation: [formula]
The IC50 was then obtained from graph plots of percentage protection versus log10 drug concentration.

[2] = target: HIV-1 protease (Human immunodeficiency virus type 1 group M subtype B, UniProt P04585); assay: HIV protease inhibition assay (quenched fluorogenic substrate, fluorescence energy transfer); details: crude HIV-1 protease from E. coli, pH 4.7, 2 hours at 37° C.
Method: HIV Protease Inhibition Assay
HIV protease inhibitory activity was assessed using an adaptation of the method of Matayoshi. et al. [Matayoshi E. D. et al (1990).
Crude HIV-1 protease was prepared from E. coli pPTΔN. Cultures were grown at 30° C. in M9 medium supplemented with 0.2% casamino acids, 100 μg/ml ampicillin and 25 μg/ml thiamine until OD600=0.5-0.6, and the temperature was raised to 42° C. to induce expression of the protease. After 1.5 hours, the cells were harvested and the pellets stored at −70° C. until required.
The protease was prepared by lysis of the cells in a French pressure cell followed by precipitation of the enzyme with ammonium sulfate at 30% saturation.
The assay buffer comprised 0.1M sodium acetate pH 4.7, 8 mM EDTA, 0.2 M NaCl.
Tubes were incubated for 2 hours at 37° C. and the reaction was terminated by the addition of 500 μl of a 2:1 mixture of DMSO: 50 mM Tricine pH 8.5. Fluorescence was measured in a fluorescence spectrophotometer, excitation λ=340 nm, emission λ=492 nm.

[3] = Human immunodeficiency virus 1, HXB2, MT4, 120 h

SMILES	IC50 [1, 3] [nM]	IC50 ([2]; Enzyme IC50 (nM)) [nM]	IC50 [1] [nM]	IC50 ([2]; read-out: Enzyme IC50) [nM]
CO[C@H]1CC[C@@H](C(=O)NC(C)(C)C)C(C[C@@H](O)[C@H](Cc2ccccc2)NC(=O)[C@@H](CSc2ccc3ccccc3c2)NS(C)(=O)=O)C1 (stereo partly drawn) [Example 7, N-tert-Butyl-[2-hydroxy-3-[[N2-(methanesulfonyl)-S-(2-naphthyl)-D-cysteinyl]amino]-4-phenylbutyl]-4-methoxy-1-cyclohexanecarboxamide]	35.8	0.42		
CO[C@H]1CC[C@@H](C(=O)NC(C)(C)C)C(C[C@@H](O)[C@H](Cc2ccccc2)NC(=O)[C@@H](CS(=O)(=O)c2ccc3ccccc3c2)NS(C)(=O)=O)C1 (stereo partly drawn) [Example 27, N-tert-Butyl-2-[2-hydroxy-3-[[N2-(methanesulfonyl)-S-(2-naphthyl)-D-cysteinyl]amino]-4-phenylbutyl]-4-methoxy-1-cyclohexanecarboxamide S,S-dioxide]	8.3	0.2		
CC(C)(C)NC(=O)[C@@H]1CCCCC1C[C@@H](O)[C@H](Cc1ccccc1)NC(=O)[C@@H](CSc1cccc2ccccc12)NS(C)(=O)=O (stereo in doubt) [Example 13, 2-{2-Hydroxy-3-[2-methanesulfonylamino-3-(naphthalen-1-ylsulfanyl)-propionylamino]-4-phenyl-butyl}-cyclohexanecarboxylic acid tert-butylamide]		0.44		
COC1CCC(C[C@@H](O)[C@H](Cc2ccccc2)NC(=O)[C@@H](CS(=O)(=O)c2cccc3ccccc23)NS(C)(=O)=O)C(C(=O)NC(C)(C)C)C1 (stereo partly drawn) [Example 29, 2-{2-Hydroxy-3-[2-methanesulfonylamino-3-(naphthalene-1-sulfonyl)-propionylamino]-4-phenyl-butyl}-5-methoxy-cyclohexanecarboxylic acid tert-butylamide]	73	0.41		
CC(C)(C)NC(=O)C1CCCCC1C[C@@H](O)[C@H](Cc1ccccc1)NC(=O)[C@@H](C[S+]([O-])c1cccc2ccccc12)NS(C)(=O)=O (stereo partly drawn) [Example 21, 2-{2-Hydroxy-3-[2-methanesulfonylamino-3-(naphthalene-1-sulfinyl)-propionylamino]-4-phenyl-butyl}-cyclohexanecarboxylic acid tert-butylamide]		0.31		
CC1CC(C[C@@H](O)[C@H](Cc2ccccc2)NC(=O)[C@@H](C[S+]([O-])c2ccc3ccccc3c2)NS(C)(=O)=O)C(C(=O)NC(C)(C)C)C1 (stereo partly drawn) [Example 15, 2-{2-Hydroxy-3-[2-methanesulfonylamino-3-(naphthalene-2-sulfinyl)-propionylamino]-4-phenyl-butyl}-4-methyl-cyclopentanecarboxylic acid tert-butylamide]	27	1.5		
COC1CCC(C[C@@H](O)[C@H](Cc2ccccc2)NC(=O)[C@@H](CSc2ccc3ccccc3c2)NS(C)(=O)=O)C(C(=O)NC(C)(C)C)C1 (stereo partly drawn) [Example 10, 2-{2-Hydroxy-3-[2-methanesulfonylamino-3-(naphthalen-2-ylsulfanyl)-propionylamino]-4-phenyl-butyl}-5-methoxy-cyclohexanecarboxylic acid tert-butylamide]		0.3	28	
COC1CCC(C[C@@H](O)[C@H](Cc2ccccc2)NC(=O)[C@@H](C[S+]([O-])c2ccc3ccccc3c2)NS(C)(=O)=O)C(C(=O)NC(C)(C)C)C1 (stereo partly drawn) [Example 14, 2-{2-Hydroxy-3-[2-methanesulfonylamino-3-(naphthalene-2-sulfinyl)-propionylamino]-4-phenyl-butyl}-5-methoxy-cyclohexanecarboxylic Acid tert-Butylamide]	20.9	0.2		
COC1CCC(C[C@@H](O)[C@H](Cc2ccccc2)NC(=O)[C@@H](CSc2ccc3ccccc3c2)NS(C)(=O)=O)C(C(=O)NC(C)(C)C)C1 (stereo partly drawn) [Example 1, 2-{2-hydroxy-3-[2-methanesulfonylamino-3-(naphthalen-2-ylsulfanyl)-propionylamino]-4-phenyl-butyl}-5-methoxy-cyclohexanecarboxylic acid tert-butylamide]	29	0.31		
CC1CC(C[C@@H](O)[C@H](Cc2ccccc2)NC(=O)[C@@H](CSc2ccc3ccccc3c2)NS(C)(=O)=O)C(C(=O)NC(C)(C)C)C1 (stereo partly drawn) [Example 2, 2-{2-Hydroxy-3-[2-methanesulfonylamino-3-(naphthalen-2-ylsulfanyl)-propionylamino]-4-phenyl-butyl}-4-methyl-cyclopentanecarboxylic acid tert-butylamide]	230	1.5		
CC1CC(C[C@@H](O)[C@H](Cc2ccccc2)NC(=O)[C@@H](CS(=O)(=O)c2ccc3ccccc3c2)NS(C)(=O)=O)C(C(=O)NC(C)(C)C)C1 (stereo partly drawn) [Example 23, 2-{2-Hydroxy-3-[2-methanesulfonylamino-3-(naphthalene-2-sulfonyl)-propionylamino]-4-phenyl-butyl}-4-methyl-cyclopentanecarboxylic acid tert-butylamide]	13	0.55		
COC1CCC(C[C@@H](O)[C@H](Cc2ccccc2)NC(=O)[C@@H](C[S+]([O-])c2ccc3ccccc3c2)NS(C)(=O)=O)C(C(=O)NC(C)(C)C)C1 (stereo partly drawn) [Example 20, 2-{2-Hydroxy-3-[2-methanesulfonylamino-3-(naphthalene-2-sulfinyl)-propionylamino]-4-phenyl-butyl}-5-methoxy-cyclohexanecarboxylic acid tert-butylamide]			21	0.2
COC1CCC(C[C@@H](O)[C@H](Cc2ccccc2)NC(=O)[C@@H](CS(=O)(=O)c2ccc3ccccc3c2)NS(C)(=O)=O)C(C(=O)NC(C)(C)C)C1 (stereo partly drawn) [Example 30, 2-{2-Hydroxy-3-[2-methanesulfonylamino-3-(naphthalene-2-sulfonyl)-propionylamino]-4-phenyl-butyl}-5-methoxy-cyclohexanecarboxylic acid tert-butylamide]	173	0.6		
